# According to patent publication US20100075993A1, “SMALL MOLECULE INHIBITORS AGAINST WEST NILE VIRUS REPLICATION” (DREXEL UNIVERSITY, priority 2005, published 2010):
# Legend:
# BHK 26.5 replicon cells = test: MTT toxicity assay on BHK 26.5 replicon cells; format: cell-based; conditions: MTT assay
# Source text: The HTS strategy follows the flowchart outlined in FIG. 2. 35,000 compounds were screened from a chemical library described below, using a cutoff of 50% reduction in luminescence readout as the criteria for further study. Upon completion of the screen, approximately 1100 compounds were selected, making the hit rate of 3%. This is considerably higher than expected, implying many false positive and/or cytotoxic compounds. Nevertheless, the compounds were picked out from the “daughter” plates and re-checked at a single 10 μM concentration. In addition, a duplicate 96 well plates were also plated and the toxicity of the compounds was determined in an MTT assay. Upon completion of these assays, most compounds were disqualified as either false positives or being toxicity to cells. As a result, only a small number of compounds were further analyzed directly from the “mother” plate stock. After IC50 determination and secondary assay to rule out luciferase inhibitors, 23 “hits” were identified.
# (§1) Replicon-harboring cells were plated 96-well plates at 10,000 cells per well in MEM plus 3% FBS. 24 hours after plating, compounds were added to the wells by a Robotic liquid handler (Biomek NX) to a final concentration of 10 μM and 1% DMSO. For each 96 well plate, A1 to A8 were left open, H1 to H4 contained 1% DMSO, H5-H8 contained Mycophenolic acid (Sigma-Aldrich, St. Louis, Mo.), which was included as positive controls. After 24 hours of treatment, the media were removed and the luciferase activity expressed in the replicon cells was quantified. When cyto-toxicity was measured, duplicate 96 well plates were plated with BHK 26.5 replicon cells. One plate was used for luciferase assay and one plate was used for measuring toxicity using MTT assay.
# Compound toxicity was determined by MTT assay. For the MTT assay, the cell medium was removed and the monolayers were incubated with 100 μl/well of 0.5 mg/ml MTT for 6 h at 37° C. The MTT solution was then aspirated and 100 μl/well of the 10% SDS (in 0.01N HCl) was added, followed by spectrophotometric quantitation (570 nm) of the insoluble MIT reaction product.
# WNV replicon = WNV replicon luciferase assay in BHK 26.5 cells (HTS, re-test, IC50); format: cell-based, West Nile virus; conditions: for IC50: West Nile virus, 24 h; for Fold decrease (HTS) / Fold decrease (Re-test): luciferase activity; for Fold decrease (HTS): 10 μM compound, 24 hours, BHK 26.5 cells; for Fold decrease (Re-test): re-checked at a single 10 μM concentration
# Experimental: Ten micromolar concentrations of a selected compound were incubated with BHK 26.5 cells expressing luciferase whose activity is dependent upon WNV replicon replication (FIG. 1A). Primary “hits” were defined by the ability to reduce the amount of luciferase enzyme activity by more than 50%, compared to controls.
# To quantify and rank the activity of the 23 remaining compound “hits”, a serial dilution of each compound was incubated with WNV replicon cells to determine the concentration that inhibits 50% of the luciferase readout (IC50s). […] A number of compounds had significant effect only at the highest, 10 μM concentration. However, several compounds had IC50s between 2 and 5 (Table 3), which is very reasonable for primary HTS hits from a compound library. Only a few compounds could cause 90% inhibition in the replicon cells at the concentrations tested.
# as §1
# Luciferase assay was performed by using the STEADY GLO reagent (Promega Corp. Madison, Wis.) according to the manufacturer's recommendation with slight modifications. Briefly, the culture media from the 96 wells were removed by dumping on paper towels.
# 100 μl of a 1:1 mixture of luciferase regent and culture media were added to the plate. After 5-minute incubation, the luminescence was read on a TOPCOUNT (PerkinElmer, Wellesley, Mass.).
# WNV = WNV yield reduction assay (live virus) on BHK cells; format: cell-based, West Nile virus; conditions: live WNV
# Experimental: The antiviral assay for the 309-F6 compounds was conducted on BHK cells. The virus produced in the presence of 1% DMSO or various concentrations of compounds was tittered on Vero cells. The amount of virus relative to the 1% DMSO control was plotted on the y-axis; the concentration of the compound 309F6 is shown in μM on the x-axis. Data from two independently treated wells (Test 1 and Test 2) are shown.
# To measure activity against live WNV, BHK cells were plated in 96-well plates at a concentration of 12,000 cells/well. One day later the cells were infected with WNV for 1 h at an MOI of 0.05. The cells were then washed once and re-fed with fresh DMEM containing dilutions of the test compound. Plates were then incubated at 37° C. for 48 h, the supernatant collected and the WNV produced titered. For virus titration, Vero cells were plated in 96-well plates at 8000 cells/well and incubated overnight. The Vero cell monolayer were then infected for 1 h with various dilutions of the WNV supernatant, overlaid with media containing 0.6% tragacanth (ICN, CA) and incubated at 37° C. for 48 h. The culture media was then aspirated; the plate was rinsed, air-dried, and fixed with 50 μl/well acetone/methanol (50:50). Viral foci were detected for enumeration by immunostaining as described previously (15).
Structure (SMILES),Toxicity (uM)* (BHK 26.5 replicon cells),IC50 (WNV replicon),Fold decrease (HTS) (WNV replicon),Fold decrease (Re-test) (WNV replicon),activity in the WNV infection assay (WNV)
"Cc1ccc(-n2nc3c(c2NC(=O)C2CC2)CSC3)c(C)c1 [Compound 20-E7, Cyclopropanecarboxylic acid [2-(2,4-dimethyl-phenyl)-2,6-dihydro-4H-thieno[3,4-c]pyrazol-3-yl]-amide]",>10 µM,10 µM,2.3 Fold,2.4 Fold,–
"Cc1ccc(S(=O)(=O)N2Cc3ccccc3CC2C(=O)Nc2ccc(Cl)cc2)cc1 (stereo not drawn) [Compound 42-E5, 2-(Toluene-4-sulfonyl)-1,2,3,4-tetrahydro-isoquinoline-3-carboxylic acid(4-chloro-phenyl)-amide]",>10 µM,7.5 µM,7 Fold,1.7 Fold,–
"COc1cc(OC)cc(C(=O)Nc2c3c(nn2-c2cccc(Cl)c2)CSC3)c1 [Compound 253-B10, N-[2-(3-Chloro-phenyl)-2,6-dihydro-4H-thieno[3,4-c]pyrazol-3-yl]-3,5-dimethoxy-benzamide]",>30 µM,3 µM,2 Fold,2 Fold,–
"NC(=O)CCS(=O)(=O)c1ccc(Cl)cc1 [Compound 2-H7, 3-(4-Chloro-benzenesulfonyl)-propionamide]",>20 µM,2.5 µM,4.5 Fold,2.5 Fold,–
"Cc1cc(C)c2nc(NC3=NC(c4ccccc4)CC(=O)N3)nc(C)c2c1 (stereo not drawn) [Compound 50-A8, 6-Phenyl-2-(4,6,8-trimethyl-quinazolin-2-ylamino)-5,6-dihydro-3H-pyrimidin-4-one]",>10 µM,5 µM,4.5 Fold,2.3 Fold,–
"COc1ccc(-n2nc3c(c2NC(=O)c2ccc(OC(C)C)cc2)CSC3)cc1 [Compound 253-F8, 4-Isopropoxy-N-[2-(4-methoxy-phenyl)-2,6-dihydro-4H-thieno[3,4-c]pyrazol-3-yl]-benzamide]",>30 µM,10 µM,2.5 Fold,2 Fold,–
"COc1ccc(CCC(=O)Nc2ccc(C(=N)NO)cc2)cc1 [Compound 331-E11, N-[4-(N-Hydroxycarbamimidoyl)-phenyl]-3-(4-methoxy-phenyl)-propionamide]",>30 µM,5 µM,3 Fold,1.5 Fold,–
"O=C(Nc1c2c(nn1-c1ccc(F)cc1)CSC2)c1ccc2c(c1)OCO2 [Compound 253-F11, Benzo[1,3]dioxole-5-carboxylic acid [2-(4-fluoro-phenyl)-2,6-dihydro-4H-thieno[3,4-c]pyrazol-3-yl]-amide]",>30 µM,10 µM,3 Fold,2 Fold,–
"Cc1cccc(-n2nc3c(c2NC(=O)c2ccc(S(=O)(=O)N4CCCCC4)cc2)CSC3)c1 [Compound 18-H5, 4-(Piperidine-1-sulfonyl)-N-(2-m-tolyl-2,6-dihydro-4H-thieno[3,4-c]pyrazol-3-yl)-benzamide]",>30 µM,7.5 µM,2 Fold,2 Fold,–
"CC1CC(C)CN(S(=O)(=O)c2ccc(C3CCCCC3)cc2)C1 (stereo not drawn) [Compound 182-C2, 1-(4-Cyclohexyl-benzenesulfonyl)-3,5-dimethyl-piperidine]",>10 µM,–,5 Fold,1.4 Fold,–
"CCOC(=O)c1cnc2ccc(OCC)cc2c1NCc1ccccc1 [Compound 63-C10, 4-Benzylamino-6-ethoxy-quinoline-3-carboxylic acid ethyl ester]",>20 µM,5 µM,3.5 Fold,–,–
"CCOc1ccc(C(=O)Nc2c3c(nn2-c2ccc(OC)cc2)CSC3)cc1OCC [Compound 253-H8, 3,4-Diethoxy-N-[2-(4-methoxy-phenyl)-2,6-dihydro-4H-thieno[3,4-c]pyrazol-3-yl]-benzamide]",>30 µM,10 µM,2 Fold,1.5 Fold,–
"CCc1cccc(NC(=O)C(Cc2ccccc2)NS(=O)(=O)c2cccs2)c1 (stereo not drawn) [Compound 207-E5, N-(3-Ethyl-phenyl)-3-phenyl-2-(thiophene-2-sulfonylamino)-propionamide]",>10 µM,10 µM,5 Fold,2 Fold,–
"COc1ccc(-n2nc3c(c2NC(=O)c2ccc4c(c2)OCO4)CSC3)cc1 [Compound 253-G8, Benzo[1,3]dioxole-5-carboxylic acid [2-(4-methoxy-phenyl)-2,6-dihydro-4H-thieno[3,4-c]pyrazol-3-yl]-amide]",>30 µM,2.5 µM,2 Fold,2 Fold,–
"CCC(C)NC(=O)c1cnn2c(O)c(Cc3ccccc3Cl)c(C)nc12 (stereo not drawn) [Compound 275-D9, 6-(2-Chloro-benzyl)-7-hydroxy-5-methyl-pyrazolo[1,5-a]pyrimidine-3-carboxylic acid sec-butylamide]",>10 µM,7.5 µM,10 Fold,2.9 Fold,no detectable activity
"O=C1Nc2ccc(S(=O)(=O)Nc3cc(Cl)ccc3Cl)c3cccc1c23 [Compound 24-C10, 2-Oxo-1,2-dihydro-benzo[cd]indole-6-sulfonic acid (2,5-dichloro-phenyl)-amide]",>10 µM,10 µM,2.5 Fold,1.8 Fold,–
